Source: PMC11984586, “A novel spider toxin as a selective antagonist of the Kv1 subfamily of voltage-gated potassium channels through gating modulation” (The Journal of Biological Chemistry, 2025)
Bridge positions count the residues as written; N and C are the ends. Peptide text beside a SMILES is read from it.

Key:
Format in all cases: cell-based
[1] = target: T1, hKv1.7 (Homo sapiens, UniProt Q96RP8); test: Whole-cell patch clamp, Kv1.7 ionic current in CHO-K1 cells; settings: mean ± SD
T1 construct: expressed in transfected cells; host or cells: CHO-K1
T1 sequence (Q96RP8 whole entry): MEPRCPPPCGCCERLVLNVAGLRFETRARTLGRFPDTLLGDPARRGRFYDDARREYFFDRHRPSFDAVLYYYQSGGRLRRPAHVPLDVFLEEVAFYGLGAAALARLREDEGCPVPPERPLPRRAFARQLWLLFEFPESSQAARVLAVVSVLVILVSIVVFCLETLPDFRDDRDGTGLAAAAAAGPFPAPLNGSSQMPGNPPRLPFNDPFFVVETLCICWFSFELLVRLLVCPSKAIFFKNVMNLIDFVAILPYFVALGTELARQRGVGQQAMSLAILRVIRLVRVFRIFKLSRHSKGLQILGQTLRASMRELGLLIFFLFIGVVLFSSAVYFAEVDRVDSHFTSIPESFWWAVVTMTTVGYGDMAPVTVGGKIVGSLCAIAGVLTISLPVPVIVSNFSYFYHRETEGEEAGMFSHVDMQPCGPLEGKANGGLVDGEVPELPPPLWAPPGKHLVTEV
Procedure: (§1) The cDNA of hKv1.1, hKv1.2, hKv1.3, rKv1.4, hKv1.5, mKv1.6, and hKv1.7 were subcloned into mammalian expression vectors pcDNA3.1 or pCMV-blank vectors, as well as other plasmids described previously ([35]). Channel mutants were generated by site-directed mutations. Briefly, the parental channel plasmid was amplified using a pair of oppositely directed primers harboring the designed mutation site, with KOD Fx (TOYOBO Co, Ltd). The resulting PCR mix was treated with FastDigest DpnI (Thermo Fisher Scientific) to remove the methylated template. Ten microliters of the digested product was then used to transform 100 μl E. coli DH5α competent cells. […]
(§2) CHO-K1 cells were selected for expressing Kv channels due to their lack of endogenous Kv channels, while HEK293 or ND7/23 cells were used for Nav and Cav channel expression. […] After 4 to 6 h transfection, cells were seeded onto poly-lysine–coated coverslips, and 24 to 36 h later, transfected cells were ready for patch-clamp analysis. […]
For Kv current recordings, the bath solution contained (in mM) the following: 140 NaCl, 5 KCl, 1 MgCl2, 2 CaCl2, 10 glucose, and 10 Hepes (pH 7.3, adjusted with NaOH), and the pipette solution contained (in mM) the following: 140 KCl, 2.5 MgCl2, 11 EGTA, and 10 Hepes (pH 7.3, adjusted with KOH). […] The steady-state fast inactivation of Kv1.3 was measured using a two-pulses protocol. […]

[2] = target: T2, Kv1.2/Y266A (Homo sapiens, UniProt P16389, Y266A); test: Whole-cell patch clamp, Tyr-to-Ala mutant homologous to Kv1.3 Y339; settings: +30 mV, mean ± SD, n = 4–6
T2 construct: expressed in transfected cells; host or cells: CHO-K1
T2 sequence (P16389 whole entry Y266A): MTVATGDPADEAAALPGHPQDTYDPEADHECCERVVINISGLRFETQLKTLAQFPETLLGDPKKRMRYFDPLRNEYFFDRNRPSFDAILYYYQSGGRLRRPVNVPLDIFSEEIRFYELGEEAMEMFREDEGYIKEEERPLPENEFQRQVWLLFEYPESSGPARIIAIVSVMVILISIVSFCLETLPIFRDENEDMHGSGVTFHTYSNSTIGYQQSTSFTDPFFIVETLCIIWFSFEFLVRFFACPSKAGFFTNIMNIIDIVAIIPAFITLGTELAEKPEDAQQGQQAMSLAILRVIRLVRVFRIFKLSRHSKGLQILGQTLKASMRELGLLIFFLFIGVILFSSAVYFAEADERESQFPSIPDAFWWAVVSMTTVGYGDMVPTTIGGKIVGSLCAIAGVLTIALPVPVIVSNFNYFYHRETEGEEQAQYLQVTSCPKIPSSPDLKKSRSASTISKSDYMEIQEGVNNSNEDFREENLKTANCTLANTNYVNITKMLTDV
From the text: Building on the identification of key amino acid residues in Kv1.3 channel that interact with MrVIII through alanine-scanning mutagenesis, we extended our analysis to explore these residues across other Kv1 subfamily channels. […] However, MrVIII retained substantial inhibitory potency on Kv1.2/Y266A mutant, albeit without fully blocking the channel current. […] The profound reduction in MrVIII's effect across homologous mutants supports the idea that it binds to a conserved region.
as §1, with “template.” for “template. Ten microliters of the digested product was then used to transform 100 μl E. coli DH5α competent cells.”
as §2

[3] = target: T3, Kv1.3/ET (Kv1.3/Q355 E_M358T) (Homo sapiens, UniProt P22001, M358T/Q355E); test: Whole-cell patch clamp, Kv1.3 double mutant; settings: +30 mV, mean ± SD, n = 3–5
T3 construct: expressed in transfected cells; host or cells: CHO-K1
T3 sequence (P22001 whole entry Q355E/M358T): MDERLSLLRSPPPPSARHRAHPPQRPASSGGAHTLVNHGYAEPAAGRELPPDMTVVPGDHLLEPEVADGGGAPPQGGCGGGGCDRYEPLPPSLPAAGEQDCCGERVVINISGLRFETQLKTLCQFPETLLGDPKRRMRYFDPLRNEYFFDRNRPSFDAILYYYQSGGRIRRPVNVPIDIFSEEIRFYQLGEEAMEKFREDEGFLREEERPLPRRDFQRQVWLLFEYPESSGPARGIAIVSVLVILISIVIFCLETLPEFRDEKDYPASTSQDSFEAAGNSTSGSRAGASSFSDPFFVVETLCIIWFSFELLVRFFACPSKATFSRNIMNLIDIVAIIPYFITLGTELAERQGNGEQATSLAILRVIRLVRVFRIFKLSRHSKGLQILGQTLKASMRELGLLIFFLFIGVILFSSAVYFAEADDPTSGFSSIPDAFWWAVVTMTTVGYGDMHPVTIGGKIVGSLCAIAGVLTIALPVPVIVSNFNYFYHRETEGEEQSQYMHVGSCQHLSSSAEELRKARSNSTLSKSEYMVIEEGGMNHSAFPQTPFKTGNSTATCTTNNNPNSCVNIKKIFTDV
From the text: In contrast, differences at positions 347, 355, and 358 between Kv1.3 and Kv1.1 prompted further analysis. To explore whether these discrepancies influence peptide-mediated inhibition, we substituted these residues in Kv1.3 with their homologous counterparts in Kv1.1 and assessed the MrVIII's inhibitory efficacy on these single-point mutants. […] To further investigate this, we introduced double adjacent mutations around Q355 and M358 in Kv1.3 to explore potential synergistic effects on MrVIII's inhibitory activity. […]
as §2
For Kv current recordings, the bath solution contained (in mM) the following: 140 NaCl, 5 KCl, 1 MgCl2, 2 CaCl2, 10 glucose, and 10 Hepes (pH 7.3, adjusted with NaOH), and the pipette solution contained (in mM) the following: 140 KCl, 2.5 MgCl2, 11 EGTA, and 10 Hepes (pH 7.3, adjusted with KOH). […] Whole cell conductance (G) at each depolarizing voltage (V) was determined using the equation: G = I/(V−Vrev), where I is the current amplitude, and Vrev is the reversal potential. […]

For CC[C@H](C)[C@@H]1NC(=O)[C@H](Cc2ccc(O)cc2)NC(=O)[C@H](CCC(N)=O)NC(=O)[C@@H]2CCCN2C(=O)[C@@H]2CSSC[C@H](NC(=O)[C@H](C)NC(=O)[C@H](CO)NC(=O)[C@H](CCC(=O)O)NC(=O)[C@H](CCC(=O)O)NC(=O)[C@@H](N)[C@@H](C)O)C(=O)NCC(=O)NCC(=O)N[C@@H](Cc3ccccc3)C(=O)N[C@@H](CC(N)=O)C(=O)N[C@@H](C)C(=O)N[C@@H](CCCNC(=N)N)C(=O)N[C@H]3CSSC[C@H](NC1=O)C(=O)N[C@@H](CCCCN)C(=O)NCC(=O)N[C@@H](Cc1c[nH]c4ccccc14)C(=O)N[C@@H](CCCNC(=N)N)C(=O)N[C@@H]([C@@H](C)O)C(=O)N[C@@H](CCCCN)C(=O)N[C@@H](CCCNC(=N)N)C(=O)N[C@H](C(=O)N[C@@H](CC(C)C)C(=O)N[C@@H](CC(N)=O)C(=O)N1CCC[C@H]1C(=O)O)CSSC[C@H](NC(=O)[C@H](CCCCN)NC(=O)[C@H](Cc1c[nH]cn1)NC(=O)[C@H](CC(C)C)NC(=O)[C@@H]1CCCN1C3=O)C(=O)N2 [MrVIII] (H-TEESACGGFNARCPLHKCCPQYICKGWRTKRCLNP-OH; disulfide 6-19, 13-24, 18-32; N-terminus and C-terminus assumed), the “inhi%(495 ms), Kv1.7 current” value ([1]; 10 μM (saturating), current at 495 ms, +30 mV) was 33.3 ± 3.0%, the IC50 ([1]; current measured at 50 ms of a 500 ms depolarization to +30 mV, n = 4–7) was 199 ± 50.3 nM and the IC50 ([2]; current at 50 ms) was 418 ± 41.2 nM. For the same molecule, the “inhi%(495 ms), Kv1.2/Y266A current” value ([2]; current at 495 ms) was 36.9 ± 14.1%, the IC50 ([3]; current at 50 ms) was 122 ± 24.5 nM and the “inhi%(495 ms), Kv1.3/ET current” value ([3]; current at 495 ms) was −35.4 ± 20.7%.
